Assay [1] concerns the target anti-L-tyrosinamide aptamer. The settings on record: previously determined by isothermal titration calorimetry; cited from earlier work. (In ITC the heat of successive injections is recorded.)
Assay [2] deals with D-Apt49. As to the kind of experiment: Homogeneous electrochemical competitive binding assay in 20% fetal bovine serum. How it is done: • Figure 1: Electrochemically competitive assay of the invention. Left-hand column: before the addition of the sample: a first redox signal is measured. Right-hand column: after the addition of a sample containing the target to be detected or measured: a second redox signal is measured. (A) Homogeneous electrochemically competitive assay: the presence of the target disrupts the complex formed between the oligonucleotide ligand and the redox-labeled target. […] (B) Heterologous electrochemically competitive assay, wherein the oligonucleotide ligand is attached to a solid phase: the presence of the target disrupts the complex formed between the oligonucleotide ligand and the redox-labeled target, thereby inducing a better detection of the redox labeled-target. […] (C) Heterologous electrochemically competitive assay, wherein the oligonucleotide ligand is attached to the electrode: the presence of the target disrupts the complex formed between the oligonucleotide ligand and the redox-labeled target, thereby reducing the detection of the redox labeled-target. […] (f) CV of 1 µM [Os(bpy)3]^2+ alone. […] Error bars: standard deviations from 3 measurements. Plain lines: fits of eq 5 to the experimental data. • Figure 3: (A) CVs (v = 0.05 V s^-1) of 5 mM Tris buffer (pH 7.0) containing 50 mM NaCl, 10 mM Mg^2+, 5 µM Fc-L-Tym and (a) 0 µM, (b) 1 µM, (c) 2 µM, (d) 3 µM, (e) 4 µM (f) 5 µM (g) 7.5 µM (h) 10 µM (i) 12.5 µM and (j) 15 µM of D-Apt49. (B) Normalized anodic peak current response as a function of aptamer concentration. Each data is the average of 3 measurements. Error bars are standard deviations. Plain line: fit of eq 5 to the experimental data. • Figure 4: Competitive binding curves performed in (A) 5 mM Tris buffer (pH 7 + 50 mM NaCl + 10 mM MgCl2) or (B) 20% fetal bovine serum (simply diluted with a 4 mM MgCl2 aqueous solution) as a function of (●, ★, ▼, Δ) L-Tym or (○) D-Tym concentration. (*) Assay of 5 µM L-Tym in the presence of 5 mM D-Tym. The Fc-L-Tym concentration was always C^0T*= 5 µM, whereas the D-Apt49 concentrations were C^0R: (●) 3, (★,○,*) 10, (▼) 40 and (Δ) 100 µM.
The enantiospecificity of the assay was next characterized using the same methodology but for solutions containing the D-Tym enantiomer. […] To evaluate the enantiospecific performance of the aptamer, the assay of trace amount of L-Tym in the presence of a large excess of D-Tym was examined and, as reported in Figure 4A, it has been found possible to detect as low as 5 µM L-Tym in the presence of 5 mM D-Tym. This remarkable performance means that as low as 0.1 % of an enantiomeric impurity in a nonracemic mixture can be assayed in a very short analysis time (<1 min). This is competitive with conventional separation techniques, and one order of magnitude lower than the 1% currently attainable by NMR. Finally, the ability to perform an assay under realistic biological conditions was examined. For such purpose, homogenous electrochemical competitive binding assays of 5-fold diluted fetal bovin serum samples spiked with known amounts of […] were then performed (Figure 4B).

The target of assay [3] is D-Apt49. The assay is described as follows: Homogeneous electrochemical competitive binding assay in Tris buffer. The settings on record: 5 µM Fc-L-Tym, K^*d fixed at 1.2 µM. As to the method:
All experiments were performed in 5 mM Tris buffer (pH 7) containing 10 mM MgCl2 and 50 mM NaCl (Recognition Buffer, RBr). The L-Tym concentration is always 5 µM. For cyclic voltammetric experiments, 1 µM [Os(bpy)3]2+ with 5 µM 1-Tym in a droplet of 50 µL RBr was used. So, before each experiment, the droplet is shaking with a micropipette. This procedure is repeated until we obtain a reproducible and stable voltammogram. Mother solution of Fc-1-Tym was a […] solution in DMF. This product is conserved at 4°C and seal with parafilm. Before each experiment, this solution is diluted 10 times in stabilized DMF, such as 0.2 µL in 50 µL of RBr leads to 5 µM of Fc-1-Tym.
Cyclic voltammetry measurements were performed with an AUTOLAB PGSTAT 12 potentiostat/galvanostat controlled by computer, and the data were acquired using GPES 4.9007 software (EcoChemie, The Netherlands). Small self-contained electrochemical cells made of 3 screen-printed electrodes on a flat substrate were used for all experiments. The electrodes were printed using a DEK model-65 screen-printer. Working electrodes were 4 mm diameter screen-printed carbon electrodes prepared using a commercial carbon ink (Electrodag PF-470 A) deposited on the top of an underlying Ag layer (Electrodag 418 SS). Counter electrode was obtained using an Ag ink (Electrodag 418 SS).
Before experiments, the screen-printed carbon electrodes were coated with bovine serum albumin (BSA) by immersing the electrodes in a 1 mg/mL BSA solution for 10 minutes at room temperature. The BSA-modified electrodes were next cycled between 0 V and 0.8 V at v = 0.05 V/s, until of the capacitive background current in cyclic voltammetry was stablized.
The competitive assay can be described by the two equilibrated binding reactions 6a and 6b, in which Fc-L-Tym is L-tyrosinamide labeled by a redox-active ferrocene group. The ferrocenyl label was here incorporated on the ―OH position of the phenolic group (Scheme 1). Note that under this condition the catalytic oxidation of the phenolic residue is no more possible and only the ferrocene labeled molecule can be detected. [drawing 63] [drawing 64] with Kd = (CTCR)/CRT [formula] Kd^(*) = (CT^(*)CR)/CRT^(*) [formula] where CR is the concentration of free aptamer receptor. […] Ideally, the two binding constants should be as close as possible (Kd ≈ K^*d). The value of K^*d was determined by monitoring in CV the reversible response of 5 µM Fc-L-Tym solution as a function of increasing concentrations of D-Apt49.
The competitive binding assay was achieved from two separate solutions containing a starting mixture of 5 µM Fc- L-Tym and 3 µM or 10 µM D-Apt49, and to which an increasing amount of L-Tym was added. […]

Regarding `NC(=O)[C@@H](N)Cc1ccc(O)cc1` [L-Tym, L-tyrosinamide], the Kd (usually the free concentration of one partner at which half of the binding sites on the other are occupied at equilibrium, for simple one-to-one binding) in assay [1] was 1.75 to 3.2 µM; at D-Apt49 [2] (5-fold diluted fetal bovine serum, average of the fitted curves, read-out: Kd (average value)), 10 µM; on D-Apt49 [2] (20% fetal bovine serum, 5 µM Fc-L-Tym, 40 µM D-Apt49, read-out: Kd), 9 µM; at D-Apt49 [2] (20% fetal bovine serum, 5 µM Fc-L-Tym, 100 µM D-Apt49, read-out: Kd), 11 µM; on D-Apt49 [3] (3 µM D-Apt49, Tris buffer) it was 2.8 ± 0.4 µM; on D-Apt49 [3] (10 µM D-Apt49, Tris buffer) it was 2.2 ± 0.6 µM.
